# Experimental data: doi:10.1101/2025.11.02.686125v3 (bioRxiv, 2025)
# Like-named read-outs stand apart in the source and are kept apart here. Where a SMILES comes first, the peptide text is derived from it. Bridges are numbered along the chain shown (N, C = ends). [ ]: non-standard residue; d: D form. The star is where a group is joined. NMeT = CN[C@H](C(=O)O)[C@@H](C)O; dNMeL = CN[C@H](CC(C)C)C(=O)O; NMeV = CN[C@H](C(=O)O)C(C)C; X1 = COC(=O)[C@H](N)CS*; X2 = N[C@H](CS*)C(=O)O
# Experiments:
# Mav strain MAH11 = details: 40 h
SMILES,MIC Mtb (Mtb strain mc^26206) [µM],MIC Mav (Mav strain MAH11) [µM],Luminescence after benzyl alcohol pretreatment (Msm (luc) cells),Luminescence after spermidine pretreatment (Msm (luc) cells),"MIC Mtb (Mtb strain mc^26206; strain mc^26206, 40 h) [µM]"
COC(=O)[C@H](N)CSSC[C@H](NC(C)=O)C(=O)N(C)[C@H](C(=O)N1CCC[C@H]1C(=O)N(C)[C@@H]1C(=O)N[C@@H](CC(C)C)C(=O)N2CCC[C@H]2C(=O)N[C@@H](CC(C)C)C(=O)N(C)[C@@H](C(C)C)C(=O)N2CCC[C@H]2C(=O)N(C)[C@H](CC(C)C)C(=O)NCC(=O)O[C@@H]1C)C(C)C [cys-ME-GM] (Ac-C(X1)[NMeV]P[NMeT]LPL[NMeV]P[dNMeL]G; ester 4-C),2,4,,,
O=C(O)[C@H]1CSC(c2nc3ccc(O)cc3s2)=N1 [D-luciferin],,,modestly reduced the accumulation,significant loss of signal,
CC(=O)N[C@@H](CSSC[C@@H](N)C(=O)O)C(=O)N(C)[C@H](C(=O)N1CCC[C@H]1C(=O)N(C)[C@@H]1C(=O)N[C@@H](CC(C)C)C(=O)N2CCC[C@H]2C(=O)N[C@@H](CC(C)C)C(=O)N(C)[C@@H](C(C)C)C(=O)N2CCC[C@H]2C(=O)N(C)[C@H](CC(C)C)C(=O)NCC(=O)O[C@@H]1C)C(C)C [cys-GM] (Ac-C(X2)[NMeV]P[NMeT]LPL[NMeV]P[dNMeL]G; ester 4-C),,> 32,,,> 32
